Assays:
Cytochrome P450 3A4 = Cytochrome P450 3A4 (Homo sapiens, UniProt P08684); assay: Inhibition of CYP3A4 after 30 mins by fluorescence assay; type: ADME
[1] = Drug metabolism in Penicillium ulaiense assessed as 6,7-furano-5-(6',7'-dihydroxygeranyloxy)-2-hydroxy-hydrocoumaric acid level at 78.2 uM after 5 days; type: ADME; conditions: 120 h
[2] = Drug metabolism in Phomopsis citri assessed as bergaptol level at 78.2 uM after 5 days; type: ADME; conditions: diaporthe citri, 120 h
Lasiodiplodia theobromae [3] = assay: Drug metabolism in Lasiodiplodia theobromae assessed as bergaptol level at 78.2 uM after 5 days; type: ADME, organism-based; conditions: in vivo, 120 h
Geotrichum [4] = assay: Drug metabolism in Geotrichum citri assessed as bergaptol level at 78.2 uM after 5 days; type: ADME, organism-based; conditions: in vivo, 120 h
[5] = Drug metabolism in Penicillium ulaiense assessed as bergaptol level at 78.2 uM after 5 days; type: ADME; conditions: 120 h
[6] = Drug metabolism in Phomopsis citri assessed as 6',7'-dihydroxybergamottin level at 78.2 uM after 5 days; type: ADME; conditions: diaporthe citri, 120 h
Lasiodiplodia theobromae [7] = assay: Drug metabolism in Lasiodiplodia theobromae assessed as 6',7'-dihydroxybergamottin level at 78.2 uM after 5 days; type: ADME, organism-based; conditions: in vivo, 120 h
Botrytis cinerea [8] = assay: Drug metabolism in Botrytis cinerea assessed as 6',7'-dihydroxybergamottin level at 78.2 uM after 5 days; type: ADME, organism-based; conditions: in vivo, 120 h
Geotrichum [9] = assay: Drug metabolism in Geotrichum citri assessed as 6',7'-dihydroxybergamottin level at 78.2 uM after 5 days; type: ADME, organism-based; conditions: in vivo, 120 h
Penicillium digitatum [10] = assay: Drug metabolism in Penicillium digitatum assessed as 6',7'-dihydroxybergamottin level at 78.2 uM after 5 days; type: ADME, organism-based; conditions: in vivo, 120 h
[11] = Drug metabolism in Penicillium ulaiense assessed as 6',7'-dihydroxybergamottin level at 78.2 uM after 5 days; type: ADME; conditions: 120 h
[12] = Drug metabolism in Phomopsis citri assessed as compound level at 78.2 uM after 5 days; type: ADME; conditions: diaporthe citri, 120 h
Lasiodiplodia theobromae [13] = assay: Drug metabolism in Lasiodiplodia theobromae assessed as compound level at 78.2 uM after 5 days; type: ADME, organism-based; conditions: in vivo, 120 h
Geotrichum [14] = assay: Drug metabolism in Geotrichum citri assessed as compound level at 78.2 uM after 5 days; type: ADME, organism-based; conditions: in vivo, 120 h
Botrytis cinerea [15] = assay: Drug metabolism in Botrytis cinerea assessed as compound level at 78.2 uM after 5 days; type: ADME, organism-based; conditions: in vivo, 120 h
[16] = Drug metabolism in Penicillium ulaiense assessed as compound level at 78.2 uM after 5 days; type: ADME; conditions: 120 h
Penicillium digitatum [17] = assay: Drug metabolism in Penicillium digitatum assessed as compound level at 78.2 uM after 5 days; type: ADME, organism-based; conditions: in vivo, 120 h
Penicillium digitatum [18] = assay: Drug metabolism in Penicillium digitatum assessed as 6,7-furano-5-(6',7'-dihydroxygeranyloxy)-2-hydroxy-hydrocoumaric acid level at 78.2 uM after 5 days; type: ADME, organism-based; conditions: in vivo, 120 h
Geotrichum [19] = assay: Drug metabolism in Geotrichum citri assessed as 6,7-furano-5-(6',7'-dihydroxygeranyloxy)-2-hydroxy-hydrocoumaric acid level at 78.2 uM after 5 days; type: ADME, organism-based; conditions: in vivo, 120 h
Botrytis cinerea [20] = assay: Drug metabolism in Botrytis cinerea assessed as 6,7-furano-5-(6',7'-dihydroxygeranyloxy)-2-hydroxy-hydrocoumaric acid level at 78.2 uM after 5 days; type: ADME, organism-based; conditions: in vivo, 120 h
Lasiodiplodia theobromae [21] = assay: Drug metabolism in Lasiodiplodia theobromae assessed as 6,7-furano-5-(6',7'-dihydroxygeranyloxy)-2-hydroxy-hydrocoumaric acid level at 78.2 uM after 5 days; type: ADME, organism-based; conditions: in vivo, 120 h
[22] = Drug metabolism in Phomopsis citri assessed as 6,7-furano-5-(6',7'-dihydroxygeranyloxy)-2-hydroxy-hydrocoumaric acid level at 78.2 uM after 5 days; type: ADME; conditions: diaporthe citri, 120 h
[23] = Drug metabolism in submerged cultures of Penicillium ulaiense assessed as decrease in compound concentration at 23.7 uM after 2 days; type: ADME; conditions: read-out: Drug metabolism
[24] = Drug metabolism in submerged cultures of Penicillium ulaiense assessed as decrease in compound concentration at 23.7 uM after 8 days; type: ADME; conditions: 192 h
Geotrichum [25] = assay: Drug metabolism in Geotrichum citri assessed as production of 6,7-furano-5-(6',7'-dihydroxygeranyloxy)-2-hydroxy-hydrocoumaric acid at 23.7 uM after 2 days; type: ADME, organism-based; conditions: in vivo, 48 h
[26] = Drug metabolism in Penicillium ulaiense assessed as production of 6,7-furano-5-(6',7'-dihydroxygeranyloxy)-2-hydroxy-hydrocoumaric acid at 23.7 uM upto 10 days; type: ADME; conditions: 240 h
[27] = Drug metabolism in Penicillium ulaiense assessed as production of bergaptol at 23.7 uM up to 10 days; type: ADME; conditions: 240 h
[28] = Drug metabolism in Penicillium ulaiense assessed as decrease in 6',7'-dihydroxybergamottin level at 23.7 uM after 4 days; type: ADME; conditions: 96 h
[29] = Drug metabolism in Penicillium ulaiense assessed as production of 6,7-furano-5-(6',7'-dihydroxygeranyloxy)-2-hydroxy-hydrocoumaric acid at 23.7 uM after 2 days; type: ADME; conditions: 48 h

Sequence of Cytochrome P450 3A4 (P08684 whole entry): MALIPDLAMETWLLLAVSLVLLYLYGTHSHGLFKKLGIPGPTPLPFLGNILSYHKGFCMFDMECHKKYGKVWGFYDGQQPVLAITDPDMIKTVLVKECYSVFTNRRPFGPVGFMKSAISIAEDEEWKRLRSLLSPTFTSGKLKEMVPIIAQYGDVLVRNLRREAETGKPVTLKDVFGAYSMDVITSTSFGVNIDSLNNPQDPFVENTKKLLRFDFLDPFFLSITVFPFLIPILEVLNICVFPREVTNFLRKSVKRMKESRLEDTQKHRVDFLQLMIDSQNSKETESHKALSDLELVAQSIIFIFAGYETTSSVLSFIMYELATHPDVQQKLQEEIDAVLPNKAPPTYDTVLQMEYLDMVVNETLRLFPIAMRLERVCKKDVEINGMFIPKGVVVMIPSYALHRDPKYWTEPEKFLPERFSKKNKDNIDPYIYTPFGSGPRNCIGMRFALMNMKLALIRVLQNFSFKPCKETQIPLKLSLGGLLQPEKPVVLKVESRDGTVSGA

C/C(=C\COc1c2ccoc2cc2oc(=O)ccc12)CC[C@@H](O)C(C)(C)O
IC50 (Cytochrome P450 3A4): 810 nM

C/C(=C\COc1c(CCC(=O)O)c(O)cc2occc12)CCC(O)C(C)(C)O (stereo unspecified)
IC50 (Cytochrome P450 3A4): > 172000 nM

C/C(=C\COc1c2ccoc2cc2oc(=O)ccc12)CCC1OC1(C)C (stereo unspecified) [6',7'-EPOXYBERGAMOTTIN]
Drug metabolism [1]: 46.6 µM | Drug metabolism [2]: 0.7 µM | Drug metabolism (Lasiodiplodia theobromae [3]): 10.3 µM | Drug metabolism (Geotrichum [4]): 3.9 µM | Drug metabolism [5]: 0.3 µM | Drug metabolism [6]: 3.3 µM | Drug metabolism (Lasiodiplodia theobromae [7]): 23.9 µM | Drug metabolism (Botrytis cinerea [8]): 5 µM | Drug metabolism (Geotrichum [9]): 7.3 µM | Drug metabolism (Penicillium digitatum [10]): 8.3 µM | Drug metabolism [11]: 0.5 µM | Drug metabolism [12]: 1.3 µM | Drug metabolism (Lasiodiplodia theobromae [13]): 1.1 µM | Drug metabolism (Geotrichum [14]): 8.2 µM | Drug metabolism (Botrytis cinerea [15]): 1.3 µM | Drug metabolism [16]: 0.7 µM | Drug metabolism (Penicillium digitatum [17]): 0.1 µM | Drug metabolism (Penicillium digitatum [18]): 32 µM | Drug metabolism (Geotrichum [19]): 24.3 µM | Drug metabolism (Botrytis cinerea [20]): 25.1 µM | Drug metabolism (Lasiodiplodia theobromae [21]): 12.6 µM | Drug metabolism [22]: 4.1 µM | metabolised at 48 h, 23.7 µM [23]: > 90% | Drug metabolism [24]: Active | Drug metabolism (Geotrichum [25]): 7.4 µM | Drug metabolism [26]: Active | Drug metabolism [27]: Active | Drug metabolism [28]: Active | Drug metabolism [29]: < 0.5 µM

Reference: ChEMBL document CHEMBL1955821, “Biotransformations of 6',7'-dihydroxybergamottin and 6',7'-epoxybergamottin by the citrus-pathogenic fungi diminish cytochrome P450 3A4 inhibitory activity” (Bioorg Med Chem Lett, 2012)
